# Measured values from article PMC9767416, “Discovery of small molecule mechanistic target of rapamycin inhibitors as anti-aging and anti-cancer therapeutics” (Frontiers in Aging Neuroscience, 2022).
# “And” between values parts separate entries of the source, which are not always exact repeats. Identical values can stand only once.
# Tests used:
# [1] = system: temozolomide (TMZ)-induced senescent U87 cells; test: Crystal violet and resazurin assays in TMZ-induced senescent U87; format: cell-based, human; settings: 0–100 μM, 24 h
# Method: To obtain ionizing radiation (IR)-induced senescent cells, proliferating RPE-1 cells were exposed to a single dose of X-rays (20 Gy) using Pantak HF160 (Gulmay, Surrey, UK) X-ray instrument equipped with Pantak Seifert HF320 generator, MXR-161 X-ray tube (Comet AG, Flamatt, Switzerland), and an aluminum filter using current 1–10 mA. After irradiation, the cells were cultured for an additional 7 days until the development of the senescent phenotype ([Salovska et al., 2022]). To induce docetaxel-induced senescence (DIS), BJ cells were exposed to 5 nM docetaxel for 7 days, as described previously ([Sapega et al., 2018]). […]
# For the crystal violet assay, the cells were washed twice with 150 μL PBS and stained with 30 μL 0.5% (w/v) crystal violet in 20% methanol for 15 mins. […] The absorbance was read at 595 nm using a microplate reader (Envision, PerkinElmer, Waltham, MA, USA). The absorbance of crystal violet in treated cells was expressed as a percentage of absorbance in untreated cells. Each condition was measured at least in triplicate.
# For the resazurin assay, 200 μL of the culture medium of each well was exchanged for 100 μL of resazurin (stock solution 30 mg/mL; Sigma, St. Louis, MO, USA) diluted 10 times in the culture medium, and the cells were incubated at 37°C for 1–3 h. Reading of fluorescence was done using a microplate reader (PerkinElmer, Waltham, MA, USA). […]
# [2] = system: IR-RPE-1 senescent cells; test: Time-lapse microscopy of IR-senescent RPE-1; format: cell-based, human; settings: 100 μM, 72 h
# Method: To obtain ionizing radiation (IR)-induced senescent cells, proliferating RPE-1 cells were exposed to a single dose of X-rays (20 Gy) using Pantak HF160 (Gulmay, Surrey, UK) X-ray instrument equipped with Pantak Seifert HF320 generator, MXR-161 X-ray tube (Comet AG, Flamatt, Switzerland), and an aluminum filter using current 1–10 mA. After irradiation, the cells were cultured for an additional 7 days until the development of the senescent phenotype ([Salovska et al., 2022]). To induce docetaxel-induced senescence (DIS), BJ cells were exposed to 5 nM docetaxel for 7 days, as described previously ([Sapega et al., 2018]). To prepare temozolomide (TMZ)-induced senescence, U87 cells were exposed to 100 μM TMZ for 14 days.
# For auto-monitoring of cells, Incucyte SX1 Live-Cell Analysis System (Sartorius, Göttingen, Germany), located in an incubator maintained at 37°C under a 5% CO2 atmosphere and 95% humidity, was utilized. The images (1,408 × 1,040 pixels at 1.24 microns/pixel) were acquired using a 10× objective lens in phase contrast, red fluorescence (excitation: 585 ± 20 nm, emission: 635 [625, 705] nm, acquisition time: 100 ms) channels every 60 min during 72 h. The first image was acquired 30 min after adding compounds. The images were processed to measure cell confluence using Incucyte software (version 2022A). […]
# [3] = system: BJ, RPE-1 and U373 cells; test: Crystal violet and resazurin proliferation screen in proliferating cells; format: cell-based, human; settings: RPE-1, U373, 0, 10, 50, 80, 100 μM, 24 h
# Method: All cell lines used in the study were obtained from the American Type Culture Collection (ATCC, Manassas, VA, USA). Human telomerase-immortalized retinal pigment epithelial cells RPE-1, glioblastoma U-87 MG, glioblastoma U373MG, glioblastoma T98G, glioblastoma A-172, breast adenocarcinoma MDA-MB-231, prostate carcinoma DU-145, and non-small cell lung cancer NCI-H1299 cell lines were cultured in Dulbecco’s modified Eagle’s medium (DMEM, Thermo Fisher Scientific, Waltham, MA, USA) with high glucose (4.5 g/L). Primary human skin BJ fibroblasts were cultured in Dulbecco’s modified Eagle’s medium (DMEM, Thermo Fisher Scientific, Waltham, MA, USA) with low glucose (1 g/L). Both cell culture media were supplemented with 10% fetal bovine serum (FBS, Gibco/Thermo Fisher Scientific) and non-essential amino acids (NEAA), 100 units/mL of penicillin, and 100 μg/mL of streptomycin (Sigma-Aldrich). Cells were kept at 37°C under a 5% CO2 atmosphere and 95% humidity.
# Twenty-four hours before treatment, cells were plated in 96-well plates at densities of 2,850 cells per well for senescent RPE-1 (IR-RPE-1), 3,350 cells per well for proliferating RPE-1 and senescent BJ (DIS-BJ), and 5,000 cells per well for U373, T98, A172, U87, TMZ-U87, and proliferating BJ cells.
# For the crystal violet assay, the cells were washed twice with 150 μL PBS and stained with 30 μL 0.5% (w/v) crystal violet in 20% methanol for 15 mins. Next, the plates were washed five times with ddH2O and left to dry overnight. Crystal violet was solubilized with 75 μL 0.2% Triton X-100 (Sigma) in PBS for 15 mins. The absorbance was read at 595 nm using a microplate reader (Envision, PerkinElmer, Waltham, MA, USA). The absorbance of crystal violet in treated cells was expressed as a percentage of absorbance in untreated cells. Each condition was measured at least in triplicate.
# For the resazurin assay, 200 μL of the culture medium of each well was exchanged for 100 μL of resazurin (stock solution 30 mg/mL; Sigma, St. Louis, MO, USA) diluted 10 times in the culture medium, and the cells were incubated at 37°C for 1–3 h. Reading of fluorescence was done using a microplate reader (PerkinElmer, Waltham, MA, USA). Absolute values of fluorescence were related to the values of untreated cells. Each condition was measured at least in triplicate.
# [4] = biological target: T1, mTOR kinase (Homo sapiens, UniProt P42345); test: In vitro mTOR kinase enzyme assay (Transcreener ADP2 FI); format: biochemical
# T1 construct: purchased Invitrogen
# Method: The mTOR enzyme assay was used to determine the mTOR kinase activity of compound 3. Enzymatic reaction mixture was prepared as follows: mTOR enzyme (10 μg/mL, Invitrogen), ATP (10 μM), p70S6K peptide (10 μg/mL, SignalChem), and kinase buffer (50 mM HEPES, pH 7.5, 1 mM EGTA, 3 mM MnCl2, 10 mM MgCl2, 2 mM DTT, and 0.01% Tween-20). The reaction was performed in black half-area 96-wells at room temperature for 1 h, then stopped by adding ADP detection buffer (Transcreener ADP^2 FI Assay, BellBrook labs) and incubated at room temperature for 1 h. Compound concentration was 10, 20, 40, 80, and 100 μM. The final DMSO concentration was 1%. PHERAstar microplate reader was used for measuring the fluorescence intensity (excitation 575 nm, emission 620 nm).
smiles,measurement,setting,value
"Nc1ccc(C(=O)Nc2cccc(-c3c[nH]c4ncccc34)c2)cc1O [Compound 3, N-(3-(1H-pyrrolo[2,3-b]pyridin-3-yl)phenyl)-4-amino-3-hydroxybenzamide]",effect on the readout of crystal violet and resazurin assays,[1],similarly to proliferating U87 cells
same,kind of effect on senescent cells,[2],rather senomorphic than senolytic effect
same,effect on the readout of crystal violet and resazurin assays,[3],significant suppressive effect
same,IC50,"[4]; ATP 10 μM, p70S6K peptide, 1 h",~70 µM and 70 µM
same,inhibition of mTOR kinase activity,[4]; at 100 μM,complete inhibition
same,concentration from which mTOR kinase activity is inhibited,"[4]; tested at 10, 20, 40, 80, 100 μM",10 µM
